Data on four compounds can be found in ChEMBL document CHEMBL1142764, “Anti-HIV properties of cationic fullerene derivatives” (Bioorg Med Chem Lett, 2005).

Assay [1] has as its system Human immunodeficiency virus 2. Kind of assay: Effective concentration against HIV-2. It counts as functional, organism-based.
Assay [2] has as its system CCRF-CEM. Kind of assay: Cytostatic activity against CEM cell culture. It counts as functional. The following applies: Homo sapiens.
The subject of assay [3] is Human immunodeficiency virus 1. Kind of assay: Effective concentration against HIV-1. The format is functional, organism-based.

In the case of `CC12C[N+](C)(C)CC34C5c6cc7c8c9c6-c6c5c5c%10c%11c6C6c%12c%13c%14c%15c%16c%17c%18c(c%19c%20c%21c%22c%23c%24c(c%10c%10c(c%12%11)c%14c%11c%10c%24c%22c%10c%20c%18c%15c%10%11)C5C35C=%23CC%215C%1914)C(C%17=C8C1(C[N+](C)(C)CC%16%131)C96)C72` (configuration not stated), the EC50 in assay [1] was 2.5 µM; in assay [3], 1.08 µM. Also, the CC50 in assay [2] was 12.5 µM.
Taken in the same sequence, the figures for `CC1C2c3cc4/c5c6c7c8c9c%10c6c4c4c3C3=C6c%11c%12c%13c%14c%15c(c9c9c%16c8c(c8/c(c%17c%18c%19c(c(c%11c%11c%19c%19c%17c8c%16c(c%149)c%19c%13%11)C62)C1C%181C[N+](C)(C)C1)=C\C/C=5)C7)C%10C4C31C[N+](C)(C)CC%12%151` (configuration not stated) were 0.2 µM, 0.21 µM and 2.93 µM.
For the compound `C[N+]1(C)CC23C4=C5c6c7c8c9c%10c%11c%12c%13c%14c%15c%16c%17c%18c%19c%20c%21c%22c%23c%24c(c6C6%25C[N+](C)(C)CC%236C%21C6C%21=C%20C%18C%18C%20=C%21C(C4c4c%20c(c-%13c(c42)C%12C9C73C1)C%18C%14%17)C6C5%25)c8c1c%10c(c%11%15)c2c%16c%19c%22c2c%241` (configuration not stated), the EC50 in assay [1] and in assay [3] was more than 25 µM throughout. For the same compound, the CC50 in assay [2] was more than 125 µM.
On to `CC1C2c3cc4c5c6c3C3=C7c8c9c%10c%11c%12c%13c%14c%15c(c-5c5c%16c%15c%15c%17c%18c%19c%20c%21c%22c(c(c8c8c%22c%22c%20c%18c%18c%15c%14c%11c%18c%22c%108)C72)C1C%211CC=%19C1(C%16%17)C1C[N+](C)(C)CC451)C%13C6C31C[N+](C)(C)CC9%121` (configuration not stated), for which the EC50 stood at 0.7 µM in assay [1] and 0.35 µM in assay [3]. The same compound had a CC50 in assay [2] of 9.04 µM.

One may read the EC50 as the midpoint of the concentration-response curve. Read a high EC50 as lower potency in that assay. What is called CC50 is the concentration that lowers cell viability or growth by half. High values mean lower toxicity to the cells, low ones greater toxicity to the cells.
